The structures appear in SMILES notation. Values after ≈ are worked out from the molar mass of the structure shown. Read-outs that look alike come from different tables or passages of the source. Where a SMILES comes first, the peptide text is derived from it. A value given as a limit tells only on which side of the number the result lay.

We go through ten compounds from patent US9278121B2, “Methods of use for an antimicrobial peptide” (priority 2013, dated 2016).

Data set [1] has as its system P. acnes. Nature of the data set: MIC test by microdilution assay against P. acnes. Type of data set: cell-based, Propionibacterium acnes.
Data set [2] concerns P. acnes. The following applies: background, literature; cited from earlier work.
In data set [3] the test system is P. aeruginosa (ATCC19660).
The subject of data set [4] is P. aeruginosa derived from patient specimens.
For data set [5] the test system is unchanged. Kind of data set: microbe, parasite or virus in culture. Conditions: Pseudomonas aeruginosa, read-out: MIC against P. aeruginosa.
The test system of data set [6] is S. aureus. Nature of the data set: microbe, parasite or virus in culture. The following applies: Staphylococcus aureus.
In data set [7] the test system is IL-8. Nature of the data set: IL-8 mRNA in P. aeruginosa-infected human corneal epithelial cells. Type of data set: cell-based. Conditions: HCET cells. The procedure: Human corneal epithelial cells (HCET cells) were exposed to 2×10^4 CFU/mL tympanitis-derived P. aeruginosa either in the presence or absence of antimicrobial peptides. Specifically, HP(2-20) and its derivatives HPA3NT3, ISFGW, and F1AF8A were added to samples at concentration of 3.2 μM. Moreover, a cathilocidin-derived peptide (P5) was also added to some conditions at a concentration of 1.6 μM.

Data set [8] relates to M. furfur. Nature of the data set: MIC microdilution assay against M. furfur.
In data set [9] the test system is P. acnes. Kind of data set: P. acnes-induced inflammatory response in ICR mouse ears. It counts as in vivo. Conditions: ICR mice. The procedure: Right ears of ICR mice (Harlan, Indianapolis, Ind.) were intradermally injected with P. acnes (1×10^8 CFU per 20 μl in Phosphate-Buffered Saline (PBS)) with or without HPA3NT3 peptide (6.4 μM). Left ears of the same mice were injected with 20 μl of PBS. In negative control ICR mice, right ears remained untreated while left ears received intradermal injections of PBS. For histological observation, the cross-sectioned ear was stained with hematoxylin and eosin (Sigma) and viewed on a Zeiss Axioskop2 plus microscope (Carl Zeiss) 24 to 48 hours after injection. The increase in ear thickness was measured using a micro caliper (Mitutoyo 547-400S; MSI Viking Gage, Charleston, S.C.) prior to, and at 24, 48, and 72 hours post injection. The percent difference in ear thickness (right vs. left ear) was determined by an induced ear inflammation ratio (percent difference in the experimental ear divided by the percent difference in the control ears). Ten milligrams of tissue from an 8 mm biopsy that was punched from ears at 24 hours after P. acnes injection was homogenized in 250 μl of sterile PBS with a tissue grinder. CFUs of P. acnes were determined by plating serial dilutions of the homogenate on an agar plate under anaerobic conditions for 48 hours.

For data set [10], the system named is human keratinocytes (HK cells).
Data set [11] is described as follows: in vitro. Conditions: human, HK cells (human keratinocytes).
[12] abbreviates: Cutibacterium acnes, strain ATCC6919, read-out: MIC against P. acnes.
Setting [13] is: Cutibacterium acnes, strain ATCC11828, read-out: MIC against P. acnes.
The mark [14] stands for this setting: clinical isolate Patient #2 (tympanitis).
The mark [15] stands for this setting: clinical isolate Patient #1 (tympanitis).

In the case of `O=C(OOC(=O)c1ccccc1)c1ccccc1` [Benzoyl Peroxide, benzoyl peroxide], the MIC in [1] (setting [12]) turned out to be 125 µM (≈ 30.3 µg/mL); in data set [1] (setting [13]) it was 62.5 µM (≈ 15.1 µg/mL); in data set [1] (Cutibacterium acnes, text summary of Table 1A, strain not named, read-out: MIC value against P. acnes) it was 62.5 µM (≈ 15.1 µg/mL). In addition, in data set [2], the “minimal inhibitory concentration (MIC)” value is 150 µg/mL (≈ 619 µM).

Consider `CC[C@H](C)[C@H](NC(=O)CNC(=O)[C@@H](NC(=O)[C@H](CCCCN)NC(=O)[C@H](CCCCN)NC(=O)[C@H](Cc1ccccc1)NC(=O)[C@H](CC(C)C)NC(=O)[C@H](CCCCN)NC(=O)[C@H](Cc1c[nH]c2ccccc12)NC(=O)[C@@H](N)CCCCN)[C@@H](C)CC)C(=O)NCC(=O)N[C@@H](CCCCN)C(=O)N[C@@H](Cc1ccccc1)C(=O)N[C@@H](CC(C)C)C(=O)N[C@@H](Cc1c[nH]cn1)C(=O)N[C@@H](CO)C(=O)N[C@@H](C)C(=O)N[C@@H](CCCCN)C(=O)N[C@@H](CCCCN)C(=O)N[C@@H](Cc1ccccc1)C(N)=O` [CA-MA] (H-KWKLFKKIGIGKFLHSAKKF-NH2), for which the “MIC against P. aeruginosa (ATCC19660)” value in [3] is 1.562 µM (≈ 3.76 µg/mL).

In the case of `CC(C)(O/N=C(\C(=O)N[C@@H]1C(=O)N2C(C(=O)[O-])=C(C[n+]3ccccc3)CS[C@H]12)c1csc(N)n1)C(=O)O` [Ceftazidime, ceftazidime], the “MIC against P. aeruginosa” value in [4] (setting [14]) is more than 32 µg/mL. For the same compound, in data set [5], the MIC was more than 32 µg/mL.

Turning to `CCC[C@@H]1C[C@@H](C(=O)N[C@@H]([C@H]2O[C@H](SC)[C@H](O)[C@@H](O)[C@H]2O)[C@H](C)Cl)N(C)C1` [Clindamycin, clindamycin], the MIC in data set [1] (setting [12]) is less than 0.2 µM; in [1] (setting [13]), less than 0.2 µM; in [6] (ATCC8096, read-out: MIC against S. aureus), more than 50 µM; in data set [6] (ATCC25923, read-out: MIC against S. aureus), more than 50 µM; in data set [6] (ATCC29213, read-out: MIC against S. aureus), more than 50 µM.

Regarding `CC[C@H](C)[C@H](NC(=O)[C@H](CCCCN)NC(=O)[C@H](CO)NC(=O)[C@H](Cc1ccccc1)NC(=O)[C@H](CC(C)C)NC(=O)[C@H](CCCCN)NC(=O)[C@H](CCC(=O)O)NC(=O)[C@H](CC(C)C)NC(=O)[C@H](CCCNC(=N)N)NC(=O)[C@H](CCCCN)NC(=O)[C@H](Cc1ccccc1)NC(=O)[C@@H](NC(=O)[C@H](CCCCN)NC(=O)[C@H](CCCCN)NC(=O)[C@H](C)N)C(C)C)C(=O)N[C@@H](CCC(N)=O)C(=O)N[C@@H](CC(N)=O)C(=O)N[C@@H](CC(=O)O)C(=O)N[C@@H](CCCCN)C(N)=O` [HP(2-20)] (H-AKKVFKRLEKLFSKIQNDK-NH2; N-terminus and C-terminus assumed), the MIC in data set [1] (text summary of Table 1A, strain not named, read-out: MIC value against P. acnes) is listed as 0.8 µM (≈ 1.86 µg/mL). Besides, the “P. aeruginosa infection induced IL-8 expression (mRNA)” value in [7] (3.2 μM, 24 hours) is “significantly inhibited”. The “expression of IL-8, peptide without P. aeruginosa” value in data set [7] (data not shown) is on record as “did not impact the expression of IL-8”. Further, the “MIC against M. furfur” value in data set [8] was less than 0.195 µM.

On to `CC[C@H](C)[C@H](NC(=O)[C@H](CCCCN)NC(=O)[C@H](CCCCN)NC(=O)[C@H](Cc1ccccc1)NC(=O)[C@H](CC(C)C)NC(=O)[C@H](CCCCN)NC(=O)[C@H](CCCCN)NC(=O)[C@H](CC(C)C)NC(=O)[C@H](CCCNC(=N)N)NC(=O)[C@H](CCCCN)NC(=O)[C@@H](N)Cc1ccccc1)C(=O)N[C@@H](Cc1c[nH]c2ccccc12)C(=O)N[C@@H](CC(N)=O)C(=O)N[C@@H](Cc1c[nH]c2ccccc12)C(=O)N[C@@H](CCCCN)C(=O)O` [HPA3NT3] (H-FKRLKKLFKKIWNWK-OH), for which, in [9], the “ear thickness or inflammation, peptide alone (histology)” value is “did not affect ear thickness or inflammation” and the “erythema or ear swelling, peptide in uninfected ears” value is listed as “no significant changes”. Also, the “MIC against P. aeruginosa” value in data set [4] (derived from patient specimens) was found to be 16 µg/mL (≈ 7.75 µM). In [10], the Cell viability stood at 100% and the “cytotoxicity to HK cells” value is listed as “only minimal cytotoxicity”. Further, in [11], the viability at 24 h, 1.6 µM was 100%; the viability at 24 h, 3.2 µM turned out to be 100%; the viability at 24 h, 6.4 µM amounted to 100%.

Regarding `CC[C@H](C)[C@H](NC(=O)[C@H](CCCCN)NC(=O)[C@H](CCC(=O)O)NC(=O)[C@H](CCCCN)NC(=O)[C@H](CO)NC(=O)[C@H](CCCCN)NC(=O)[C@H](CCCNC(=N)N)NC(=O)[C@H](Cc1ccccc1)NC(=O)[C@H](Cc1ccccc1)NC(=O)[C@H](CC(=O)O)NC(=O)CNC(=O)[C@H](CC(C)C)NC(=O)[C@@H](N)CC(C)C)C(=O)NCC(=O)N[C@@H](CCCCN)C(=O)N[C@@H](CCC(=O)O)C(=O)N[C@@H](Cc1ccccc1)C(=O)N[C@@H](CCCCN)C(=O)N[C@@H](CCCNC(=N)N)C(=O)N[C@H](C(=O)N[C@H](C(=O)N[C@@H](CCC(N)=O)C(=O)N[C@@H](CCCNC(=N)N)C(=O)N[C@H](C(=O)N[C@@H](CCCCN)C(=O)N[C@@H](CC(=O)O)C(=O)N[C@@H](Cc1ccccc1)C(=O)N[C@@H](CC(C)C)C(=O)N[C@@H](CCCNC(=N)N)C(=O)N[C@@H](CC(N)=O)C(=O)N[C@@H](CC(C)C)C(=O)N[C@H](C(=O)N1CCC[C@H]1C(=O)N[C@@H](CCCNC(=N)N)C(=O)N[C@H](C(=O)N[C@@H](CCC(=O)O)C(=O)N[C@@H](CO)C(=O)O)[C@@H](C)O)C(C)C)[C@@H](C)CC)C(C)C)[C@@H](C)CC` [LL37], the “MIC against P. aeruginosa” value in [4] (setting [15]) and in [4] (setting [14]) was more than 32 µg/mL throughout.

As to `CC[C@H](C)[C@H](NC(=O)CN)C(=O)NCC(=O)N[C@@H](C)C(=O)N[C@H](C(=O)N[C@@H](CC(C)C)C(=O)N[C@@H](CCCCN)C(=O)N[C@H](C(=O)N[C@@H](CC(C)C)C(=O)N[C@H](C(=O)N[C@H](C(=O)NCC(=O)N[C@@H](CC(C)C)C(=O)N1CCC[C@H]1C(=O)N[C@@H](C)C(=O)N[C@@H](CC(C)C)C(=O)N[C@H](C(=O)N[C@@H](CO)C(=O)N[C@@H](Cc1c[nH]c2ccccc12)C(=O)N[C@H](C(=O)N[C@@H](CCCCN)C(=O)N[C@@H](CCCNC(=N)N)C(=O)N[C@@H](CCCCN)C(=O)N[C@@H](CCCNC(=N)N)C(=O)N[C@@H](CCC(N)=O)C(=O)N[C@@H](CCC(N)=O)C(N)=O)[C@@H](C)CC)[C@@H](C)CC)[C@@H](C)O)[C@@H](C)O)C(C)C)C(C)C` [Melittin], the “MIC against P. aeruginosa” value in data set [4] (setting [15]) came to 8 µg/mL (≈ 2.81 µM); in data set [4] (setting [14]), 16 µg/mL (≈ 5.62 µM).

Turning to `CN[C@H](CC(C)C)C(=O)N[C@H]1C(=O)N[C@@H](CC(N)=O)C(=O)N[C@H]2C(=O)N[C@H]3C(=O)N[C@H](C(=O)N[C@H](C(=O)O)c4cc(O)cc(O)c4-c4cc3ccc4O)[C@H](O)c3ccc(c(Cl)c3)Oc3cc2cc(c3O[C@@H]2O[C@H](CO)[C@@H](O)[C@H](O)[C@H]2O[C@H]2C[C@](C)(N)[C@H](O)[C@H](C)O2)Oc2ccc(cc2Cl)[C@H]1O` [Vancomycin, vancomycin], in data set [4] (setting [14]), the “MIC against P. aeruginosa” value is more than 32 µg/mL. Also, the MIC in [5] is more than 32 µg/mL.

For `CC(C)C[C@H](NC(=O)[C@H](CCCCN)NC(=O)[C@H](CCCCN)NC(=O)[C@H](CC(C)C)NC(=O)[C@H](CC(C)C)NC(=O)[C@H](CCCCN)NC(=O)[C@H](CCCCN)NC(=O)[C@H](CC(C)C)NC(=O)[C@H](CC(C)C)NC(=O)[C@@H]1CCCN1C(=O)[C@H](CCCCN)NC(=O)[C@H](CCCCN)NC(=O)[C@H](CC(C)C)NC(=O)[C@H](CC(C)C)NC(=O)[C@H](CCCCN)NC(=O)[C@H](CCCCN)NC(=O)[C@H](Cc1c[nH]c2ccccc12)NC(=O)[C@@H](N)CCCCN)C(N)=O` [p5] (H-KWKKLLKKPLLKKLLKKL-NH2; N-terminus and C-terminus assumed), the “MIC against P. aeruginosa (ATCC19660)” value in data set [3] was 0.78 µM (≈ 1.75 µg/mL).
